According to patent publication EP0526502B1, “PHENOLIC AMINE DEPIGMENTING AND ANTIMELANOMA AGENTS” (The Governors of the University of Alberta, priority 1990, dated 1991):
Values joined by “and” are separate entries in the source; they are usually repeats but may differ in a detail not shown here. Identical values can stand only once.

How the values were obtained:
[1] = acute toxicity evaluated from 100 to 1600 mg/Kg; Miura et al; cited from earlier work
melanocytes = assay: Light and electron microscopy of melanocytes in regrowing hair follicles; type: in vivo, mice; details: for electron microscopy of hair follicles: melanocytes and melanosomes: i.p. injection for 10 days
Procedure: In six groups of 4 mice (1 control and 1 for each compound) were treated daily with the control or compound injected i.p. The compounds tested were 4-S-CAP, N-Ac-4-S-CAP and α-Me-4-S-CAP. Samples of skin and regrowing hair follicles were excised under brief general anaesthesia on day 10 (late anagen phase), fixed in Karnovsky's solution (2.5% glutaraldehyde and 2.5% paraformaldehyde in 0l1 M cacodylate buffer), and refixed in 1% osmium tetroxide in cadodylate buffer. Tissues were stained en bloc with 1.5% uranyl acetate in o.1 M veronal buffer for 30min, dehydrated in graded ethanol solutions, embedded in epoxy resin, and sectioned with a Potter-Blum ultramicrotome MT II. Sections 1.0 »m thick were stained with methylene blue for light microscopy, thin sections were stained with led citrate for electron microscopy.

follicular melanocytes = assay: Depigmentation of new hair after plucking (PTCA/eumelanin content of hair follicles); type: in vivo, C57BL/6J black mice; details: for PTCA Content / Depigmentation: hair harvested day 22
Procedure: Breeding pairs of C57BL/6J black mice were purchased from Jackson Laboratory, Bar Harbor, Maine. Female progeny were used in this testing when approximately 8 weeks old and weighing 17 grams.
Black hairs were plucked manually from the back of the mice to initiate new anagen growth and activate follicular melanocytes with increased tyrosinase activity. Thirty mice were randomized into 6 groups of 5 (1 control and 1 for each compound). Starting on day 1, daily for 14 days the agent was injected i.p. or was infiltrated s.c. in an area where hair follicles had been plucked; the dose was 300 mg/kg body weight.
In the same 30 mice, hair follicles were harvested on day 22 (early telogen phase) and their eumelanin content analyzed. Details of the assay, including chemical degration of melanin and high-performance liquid chromatography (HPLC) were as described in Ito et al, "Quantitative Analysis of Eumelanin and Pheomelanin in Hair and Melanosomes" J. Invest. Dermatol 80:268-272, 1983. Briefly, a 10-mg hair sample is homogenized in water at a concentration of 10 mg/ml; the 200-»l homogenate is transferred to a screw-capped test tube, mixed with 1M H₂SO₄ (800 »L) and oxidized with 3% KMnO₄. The product, pyrrole-2,3,5-tricarboxylic acid (PTCA), is analyzed by HPLC with a UVL detector; samples are measured in duplicate. The eumelanin content is expressed as PTCA (ng/mg) against the PCTA content of BALB/c albino mice as control (≦ 10 ng/mg, the background value with our method, in which 1 ng corresponds roughly to a eumelanin content of 50 ng), and the degree of depigmentation is expressed as a percentage: (PTCA content of control sampleminusPTCA content of experimental sample)/(PCTA content of control sample) x 100 [formula] .

B16F10 melanoma = assay: Melanoma-colony formation in the lungs; type: in vivo, mice; details: 300 mg/kg i.p. daily for 14 days from day five; lungs excised day 26
Procedure: Murine B16F10 melanoma cell line with a strong metastatic property to form tumour colonies in the lungs was obtained from Dr. Longenecker, Department of Immunology, University of Alberta. Such cell line is well recognized and readily available as reported in Miura et al, supra. The cells were grown in T-75 flasks in dulbecco's MEM available from Gipco Lab Inc., Grand Island, New York, supplemented with 10% fetal calf serum, also obtained from Gipco, penicillin (100 »/ml) and streptomycin (100 »g/ml). The cells were incubated at 37°C in humidified atmosphere of 5% CO₂ in air. The cells were harvested by applying a thin layer of 0.25% trypsin solution in EDTA, washed and resuspended in cold N saline solution. Viable cells were identified by trypan blue dye exclusion and counted. The cell suspension was diluted to the desired concentration. Three groups of mice were studied using a control 4-S-CAP and N-Ac-4-S-CAP as the active agents in the treatment. On day zero, the mice were inoculated via the lateral tail vein with 5 x 10⁴ cells in 0.2 ml of N saline. The test drugs were dissolved in normal saline, sterilized by membrane filtration, and administered in a dose of 300 mg/Kg (4-S-CAP) or 900 mg/Kg (N-Ac-4-S-CAP); starting on day five, the control solution or drug was injected i.p. daily for 14 days. On day 26, the mice were killed by cervical dislocation, their lungs were removed, and the number of melanoma colonies was counted under a dissecting microscope. The results were expressed as percentage reduction in the number of colonies: [a - b/a] x 100, where a = colonies in control group and b = colonies in experimental group.

Mushroom tyrosinase = Mushroom tyrosinase (Agaricus bisporus, UniProt C7FF04); assay: Enzyme kinetics with tyrosinase (substrate disappearance by HPLC, Lineweaver-Burk); type: biochemical; details: result in words
Procedure: (§1) Mushroom tyrosinase (400 units/mg) and plasma MAO (1000 units/gm) were obtained from Sigma Chemical Co. (St. Louis, MO, USA). A reaction mixture consisted of a substrate of 7 to 8 different concentrations (40 to 500 »M for mushroom tyrosinase and 20 to 200 »M for MAO) and of either mushroom tyrosinase (2.5 »g) or MAO (10 »g) in 1.0 mL of 0.05 M sodium phosphate buffer, pH 6.8 and 7.4 respectively. The reactions were carried out at 37°C in a shaking water bath, and stopped by taking 100 »L of the reaction mixture and adding it to 900 »L of 0.4 M HCLO₄. The disappearance of substrate was followed using HPLC (high pressure liquid chromatography) Km and Vmax values were calculated from the Lineweaver-Burk plots.

plasma MAO = target: T1, plasma MAO (Bos taurus, UniProt Q29437); assay: Enzyme kinetics with monoamineoxidase (substrate disappearance by HPLC, Lineweaver-Burk); type: biochemical; details: result in words
T1 construct: purchased Sigma Chemical Co. (St. Louis, MO, USA)
T1 sequence (Q29437 17-762): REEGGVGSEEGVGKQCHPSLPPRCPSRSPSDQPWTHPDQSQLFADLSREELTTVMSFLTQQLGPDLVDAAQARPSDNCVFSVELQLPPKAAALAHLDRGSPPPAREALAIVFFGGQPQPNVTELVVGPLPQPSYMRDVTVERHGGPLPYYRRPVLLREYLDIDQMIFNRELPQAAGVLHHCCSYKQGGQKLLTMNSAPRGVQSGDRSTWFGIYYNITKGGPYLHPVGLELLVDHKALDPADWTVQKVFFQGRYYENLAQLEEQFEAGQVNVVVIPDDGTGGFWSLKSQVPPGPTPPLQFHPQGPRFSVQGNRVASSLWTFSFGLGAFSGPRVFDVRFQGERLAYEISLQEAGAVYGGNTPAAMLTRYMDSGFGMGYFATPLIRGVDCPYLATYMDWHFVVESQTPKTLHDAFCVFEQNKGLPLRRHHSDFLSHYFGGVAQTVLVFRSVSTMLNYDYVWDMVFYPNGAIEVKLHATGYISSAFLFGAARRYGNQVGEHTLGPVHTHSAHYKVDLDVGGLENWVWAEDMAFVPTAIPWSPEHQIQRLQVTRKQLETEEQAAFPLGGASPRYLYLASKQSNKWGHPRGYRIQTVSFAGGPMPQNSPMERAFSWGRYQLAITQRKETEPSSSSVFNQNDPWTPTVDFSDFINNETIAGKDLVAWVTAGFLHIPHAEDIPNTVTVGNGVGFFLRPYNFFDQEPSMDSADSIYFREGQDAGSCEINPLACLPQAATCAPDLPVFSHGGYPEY
Procedure: as §1

B16 melanoma = assay: In vivo growth inhibition of s.c. inoculated B16 melanoma; parameters: species or system C57BL/6J mice; details: 200 mg/Kg i.p. daily for nine days, day 12 or 13
Procedure: The in vivo antimelanoma effect of the compounds were evaluated by percent growth inhibition of inoculated tumour (%g.i.). The percent g.i. was computed from the mean tumour volume at day 12 or 13 of the experiments; i.e., 100 x (1- treated group/control group). […] To further examine whether a minimal dose of N-Ac-4-S-CAP, 200 mg/Kg has an antimelanoma effect, three groups of mice were treated with N-Ac-4-S-CAP. […] One of the advantages of N-Ac-4-S-CAP over 4-S-CAP was that it had much higher LD⁵⁰ (as high as 1400 mg/Kg of body weight, and therefore a greater range of safety).

[2] = Acute toxicity / lethal dose and maximum tolerable dose; details: mouse, in vivo
Procedure: 3:1-85 1972. In accordance with this Protocol, ten to fifteen mice were used in each test group. They were weighed and randomized at day one after s.c. inoculation of B16 melanoma cells. From day five, the phenolic melanin precursors were administered i.p. daily for nine days. The test compounds were dissolved in normal saline, and sterilized by heating to 100°C for 2 minutes. […] They were administered i.p. with the following doses: 400 mg/Kg - 4-S-CAP; 200 to 300 mg/Kg - 4-S-CAP; and 200 to 1200 mg/Kg - N-Ac-4-S-CAP. A catalytic amount of L-dopa, 25 mg/Kg and antidecarboxylase, carbidopa, 400 mg/Kg, were also administered. Carbidopa was given one hour prior to L-dopa administration. DTIC (NSC 4538) was used as a control drug at a dose of 60 mg/Kg. Acute toxicity of 4-S-CP and 4-S-CAP was evaluated from 100 to 1600 mg/Kg.
The B16 mouse melanoma was maintained by s.c. inoculation of tumour cells into the back of C57BL7J mice (5 to 6 weeks, female). […] Briefly, excised tumours were homogenized in normal saline. The homogenized tumour cells were then passed through a sterile 80 mesh stainless steel screen, washed with normal saline, centrifuged (500 g. for 10 minutes) and resuspended in normal saline. Suspensions of viable melanoma cells at the concentration of 1 x 10⁶ per 0.1 ml were inoculated s.c. into both the right and left inguinal areas of C57BL/6J mice (female, 5 to 6 weeks old, 18 to 20 gm).

[3] = Route s.c., 300 mg/kg daily for 14 days
[4] = Route s.c., 300 mg/kg daily for 14 days, 300 mg/kg
[5] = Route: i.p., 300 mg/kg daily for 14 days
[6] = Route: i.p., 300 mg/kg daily for 14 days, 300 mg/kg

Sequence of Mushroom tyrosinase (C7FF04 1-392): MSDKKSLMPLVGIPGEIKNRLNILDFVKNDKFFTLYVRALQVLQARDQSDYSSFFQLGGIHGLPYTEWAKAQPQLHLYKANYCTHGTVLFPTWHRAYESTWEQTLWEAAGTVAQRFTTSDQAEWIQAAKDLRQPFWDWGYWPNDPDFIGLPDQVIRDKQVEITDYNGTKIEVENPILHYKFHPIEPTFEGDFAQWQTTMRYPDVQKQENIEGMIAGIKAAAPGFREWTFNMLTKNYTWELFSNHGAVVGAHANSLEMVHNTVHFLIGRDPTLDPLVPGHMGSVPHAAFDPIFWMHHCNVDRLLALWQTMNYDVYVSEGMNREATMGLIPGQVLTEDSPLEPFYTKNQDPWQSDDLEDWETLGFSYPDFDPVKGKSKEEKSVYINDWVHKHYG

Structure (SMILES) | lethal dose [1] [mg/kg] | electron microscopy of hair follicles: melanocytes and melanosomes (melanocytes) | PTCA Content (follicular melanocytes; [3]) [ng/mg] | Depigmentation (follicular melanocytes; [4]) | PTCA Content (follicular melanocytes; [5]) [ng/mg] | Depigmentation (follicular melanocytes; [6]) | Depigmentation (follicular melanocytes; [3]) [%] | Depigmentation (follicular melanocytes; [5]) [%] | other results
N[C@@H](CSc1ccc(O)cc1)C(=O)O [4-S-CP, 4-S-cysteinylphenol] | 600 | – | – | – | – | – | – | – | –
NCCSc1ccc(O)cc1 [4-S-CAP, 4-S-cysteaminylphenol, reference compound] | 400 | contained immature melanosomes at stages II and III | 458.3 ± 107.6 | 47% and 46.9% | 146.1 ± 72.4 | 87% and 86.6% | – | – | light microscopy of hair follicles: functioning melanocytes and melanin pigments (melanocytes; i.p. daily, day 10 (late anagen phase)): the hair follicles contained functioning melanocytes and melanin pigments transferred into keratonocytes, although they were much sparser than in the controls; No. of Colonies % control (B16F10 melanoma): 30% and 32.4%; No. of Colonies per pair of lungs (B16F10 melanoma): 28.0 ± 14.5; tyrosinase substrate (Mushroom tyrosinase): a substrate for both plasma MAO and tyrosinase; substrate for plasma MAO (plasma MAO): a substrate for both plasma MAO and tyrosinase; %Gi (B16 melanoma; Experiment I): 54.0%; Tumour Volume (B16 melanoma; Experiment I): 239 ± 39 mm^3; %Gi (B16 melanoma; Experiment II): 25.1%; Tumour Volume (B16 melanoma; Experiment II): 405 ± 61 mm^3
CN(C)CCSc1ccc(O)cc1 [N,N-DiMe-4-S-CAP, N,N'-dimethyl-4-S-CAP] | – | – | 1023.4 ± 110.1 | – | 1009.0 ± 193.5 | – | 6.1 | 7.3 | visible pigmentation of new hair (follicular melanocytes; i.p. or s.c. route, result in words): no visible changes in pigmentation in new follicles
NCCCSc1ccc(O)cc1 [4-S-HomoCAP, 4-S-homo-CAP] | – | – | 397.7 ± 279.3 | – | 956.7 ± 77.9 | – | 63.5 | 12.1 | –
CC(N)CSc1ccc(O)cc1 (stereo not drawn) [α-Me-4-S-CAP, α-methyl-4-S-CAP] | – | contained immature melanosomes at stages II and III | 557.9 ± 47.2 | 58% and 57.9% | 121.3 ± 81.9 | 89% and 88.9% | – | – | side-effects (follicular melanocytes; 300 mg/kg daily for 14 days, i.p. or s.c., irritation seen after s.c. administration): some irritation of the skin in the plucked area; per single dose toxicity levels [2]: ~500 mg/kg of body weight
